Laboratory results reported in US20240189263A1, “DERIVATIZED C60 MOLECULES AND METHODS AND MATERIALS FOR USING DERIVATIZED C60 MOLECULES TO REDUCE RADIATION INJURY” (Mayo Foundation for Medical Education and Research, priority 2021, published 2024).

What was measured:
Format in all cases: cell-based
N2A cells [1] = assay: ROS by H2-DCFDA probe after proton irradiation, N2A; conditions: pretreated 100 μM, TBHP 200 μM, 1 Gy proton, read 30 minutes post radiation
Description: (§1) Cell lines were irradiated using pencil beam scanning (PBS) proton beams produced by IBA ProteusOne (Ion Beam Applications, Louvain-la-Neuve, Belgium). Single layer mono-energy 227 MeV pencil beams with uniform spacing of 0.25 cm between each spot were used to create a large field size with uniform dose distribution (±2%) that encompassed all sample wells containing the cells. A fixed source to surface distance (SSD) setup and gantry at 180 degrees was used to delivery 0.5, 1, 2, 4, and 6 Gray (Gy) dose of ionizing radiation to cells. The cells were place at an 8 cm depth, with a linear energy transfer (LET) of approximately 1.7 keV/μm, using solid water slabs as a buildup. […] The monitor units needed to deliver the intended dose were calculated using the measure dose/MU values.
(§2) Post radiation, 2′,7′-dichlorodihydrofluorescein diacetate (H2-DCFDA) probes were used to measure the level of reactive oxygen species (ROS) post-proton radiation (1 Gy, 230 MeV proton beam). […] A fluorescence microplate reader (SpectraMax M5, Molecular Devices Corporation, California, USA) was used to detect the generation of fluorescent DCF molecules with an excitation filter of 485 nm and an emission filter of 525 nm, with a 515 nm cutoff filter. […] Following irradiation, the cells were transported back for plate reading, 30 minutes post radiation.

N2A cells [2] = assay: DNA damage, γH2AX foci immunofluorescence, N2A
Method: (§3) To test the ability of C60-ser to protect against radiation injury, the level of DNA damage in response to radiation was analyzed by measuring γH2AX. The H2AX protein becomes phosphorylated into γH2AX as a result of DNA double strand breaks. This allows for the visualization and quantification of double strand break foci through immunofluorescence analysis. Cells were plated on 8 chamber slides and incubated overnight before C60-ser treatment. Three sets of slides per cell line (to be irradiated with 0, 0.5, and 1 Gy) were prepared, with the top 4 rows used as a control and the bottom 4 rows incubated with 100 μM C60-ser. Cells were incubated with C60-ser for 2 hours before irradiation with a clinical Proteus One proton machine (Ion Beam Applications, Louvain-la-Neuve, Belgium). A 230 MeV mono-energetic unmodulated broad beam of large field size that encompassed all slides containing the cells was used to deliver the 0.5 and 1 Gy doses. White solid water slabs (IBA Dosimetry, Germany) provided the necessary phantom material to place the cells at the desired 8 cm depth with an LET of approximately 1.7 keV/μm. After irradiation, cells were incubated at 37° C. with 5% CO2 for 30 minutes before washing and fixing the cells with 1% formaldehyde. The cells were permeabilized with 1% NP-40 and incubated with 5% BSA to block unspecific antibody bonding. The cells were then incubated with γH2AX primary antibody followed by a secondary antibody. Mounting media containing DAPI was used before applying cover slips and sealing the samples. Cells were imaged on an Olympus IX71 trinocular inverted fluorescence phase contrast microscope with a 40× objective. The resulting images were analyzed by ImageJ, and the foci were counted.

NIH3T3 cells = assay: ROS by H2-DCFDA probe after proton irradiation, NIH3T3; conditions: NIH3T3, pretreated 100 μM, TBHP 200 μM, 1 Gy proton, read 30 minutes post radiation
Description: as §1, §2

HUVEC cells = assay: DNA damage, γH2AX foci immunofluorescence, HUVEC
Method: as §3

[3] = 100 μM 2 hours before 0.5 Gy proton radiation
[4] = 100 μM 2 hours before 1 Gy proton radiation
[5] = 100 μM 2 hours, absence of radiation

**Q.** With `O=C(NC(CO)CO)C1(C(=O)NC(CO)CO)C23c4c5c6c7c8c4-c4c2c2c9c%10c4C4%11c%12c-%10c%10c%13c%14c%12-c%12c(c-7c7c%15c%12C%14%12C(C(=O)NC(CO)CO)(C(=O)NC(CO)CO)C%12%14c%12c%16c%17c%18c(c%12-%15)C7%12C(C(=O)NC(CO)CO)(C(=O)NC(CO)CO)C6%12c6c-5c5c7c(c6-%18)C%176C(C(=O)NC(CO)CO)(C(=O)NC(CO)CO)C6%12c6c-7c(c-2c2c6-c6c%12c-%16c%14c-%13c6C%106C(C(=O)NC(CO)CO)(C(=O)NC(CO)CO)C926)C513)C84C%11(C(=O)NC(CO)CO)C(=O)NC(CO)CO` (centres unmarked) [C60-ser, C60-serinol] as the molecule, how does the “ROS (H2-DCFDA fluorescence)” value (N2A cells [1]) read?
**A.** The value was “significant reduction in ROS”.

**Q.** What about the “γH2AX foci vs control” value (N2A cells [2]; [3]) of the same molecule?
**A.** The value was “trend towards reduction in total foci formed, but it was not statistically significant”.

**Q.** And the “γH2AX foci vs control” value (N2A cells [2]; [4])?
**A.** The value was “significant decrease in the number of foci”.

**Q.** And the “γH2AX foci vs control” value (N2A cells [2]; [5])?
**A.** The value was “no significant different in foci expression”.

**Q.** And the “ROS (H2-DCFDA fluorescence)” value (NIH3T3 cells)?
**A.** Its value is “significant reduction in ROS”.

**Q.** And the “γH2AX foci vs control” value (HUVEC cells; [3])?
**A.** The value was “trend towards reduction in total foci formed, but it was not statistically significant”.

**Q.** What about the “γH2AX foci vs control” value (HUVEC cells; [4]) of the same molecule?
**A.** Its value is “significant decrease in the number of foci”.

**Q.** And the “γH2AX foci vs control” value (HUVEC cells; [5])?
**A.** The value was “no significant different in foci expression”.
